From ChEMBL document CHEMBL1201862, “PubChem BioAssay data set” (2004) come the findings set out here.

For one assay, the target named is Major prion protein (Homo sapiens, UniProt P04156). The class given is functional, cell-based.
A short description of assay [1]: cells.
The nature of assay [2]: ADAM10 protease inhibitors, dose response, selectivity assay for ADAM17 exosite inhibitor project, biochemical, FRET peptide substrate, recombinant human ADAM10 (AID 743259).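 Also: ADAM10 enzyme cleaving a FRET peptide substrate.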
Assay [3] deals with Disintegrin and metalloproteinase domain-containing protein 17 (Homo sapiens, UniProt P78536). The assay is described as follows: exosite inhibitors of ADAM17, dose response, biochemical (AID 743260).
In assay [4] the target is Endoplasmic reticulum aminopeptidase 1 (Homo sapiens, UniProt Q9NZ08). The assay is described as follows: ERAP1 aminopeptidase inhibitors, dose response, biochemical, cherry-pick, set 2, plate reader (AID 743314).
Assay [5] in a line: Vero E6 cell cytotoxicity, dose response, cytotoxicity control for non-replicating M. tuberculosis project, secondary assay (AID 492998). The class given is functional, VeroE6. Conditions: Vero C1008.
In a further assay the test system is INS1. Nature of the assay: beta cell apoptosis inhibitors, cytokine rescue, dose response, luminescence, retest (AID 449756).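 Also: cell death triggered by IL-1 beta plus TNF-alpha plus IFN-gamma mixture; protective hits raise ATP signal compared with cytokine alone wells.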 The class given is functional, cell-based. Conditions: Rattus norvegicus.
The nature of assay [6]: cytotoxicity toward DRD oncogenic fibroblasts, dose response, cell-based, non-viral oncogenic, luminescence (AID 1934). The class given is functional. Conditions: Homo sapiens.
A further assay concerns SN12K1. Nature of the assay: cells. The class given is functional. Conditions: Homo sapiens.
The subject of another assay is Streptococcus. Nature of the assay: Group A Streptococcus viability loss, dose response, counter-screen for streptokinase expression inhibitor project, luminescence, BacTiterGlo (AID 1915).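 Also: potency for reduction of bacterial viability or growth.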 Format: functional, organism-based.
Assay [7] in a line: cells. The class given is functional.
Assay [8] is described as follows: HeLa cell cytotoxicity, dose response, cytotoxicity control for MgcRacGAP inhibitor project (AID 624300). The class given is functional.
A further assay deals with P388/ADR. Nature of the assay: cells. Conditions: Mus musculus. The class given is functional.
Assay [9] deals with BJ. The assay is described as follows: cells. Format: functional, cell-based. Particulars: Homo sapiens.
Assay [10] deals with T1, Rac GTPase-activating protein 1 (Homo sapiens, UniProt Q9H0H5).
T1 sequence (Q9H0H5 whole entry): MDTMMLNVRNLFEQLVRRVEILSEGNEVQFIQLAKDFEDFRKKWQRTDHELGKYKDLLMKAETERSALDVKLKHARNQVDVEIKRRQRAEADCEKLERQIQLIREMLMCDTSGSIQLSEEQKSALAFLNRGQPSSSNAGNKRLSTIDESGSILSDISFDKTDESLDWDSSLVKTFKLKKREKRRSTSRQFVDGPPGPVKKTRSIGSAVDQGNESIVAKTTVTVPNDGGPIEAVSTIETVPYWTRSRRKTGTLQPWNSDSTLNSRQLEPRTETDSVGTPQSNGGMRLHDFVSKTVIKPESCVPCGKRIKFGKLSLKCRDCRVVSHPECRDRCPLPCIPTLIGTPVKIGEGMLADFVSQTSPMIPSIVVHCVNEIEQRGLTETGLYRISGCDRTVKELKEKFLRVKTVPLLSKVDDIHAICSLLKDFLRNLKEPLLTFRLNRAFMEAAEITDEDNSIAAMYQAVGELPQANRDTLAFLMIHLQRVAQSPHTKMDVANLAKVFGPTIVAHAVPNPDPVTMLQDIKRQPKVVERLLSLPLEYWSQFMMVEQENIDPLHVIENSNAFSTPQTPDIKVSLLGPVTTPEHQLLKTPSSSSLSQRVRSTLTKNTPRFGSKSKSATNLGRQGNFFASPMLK
Nature of the assay: MgcRacGAP GTPase-activating activity inhibitors, confirmation, biochemical, ADP Hunter fluorescence, primary and confirmatory (AID 624330). The class given is functional.

A short description of assay [11]: microbe, parasite or virus in culture. The class given is functional. Conditions: Mycobacterium tuberculosis.
The test system of assay [12] is HEK293. The assay is described as follows: cells. Particulars: Homo sapiens.
The target in assay [13] is T2, Heat shock factor protein 1 (Mus musculus, UniProt P38532).
T2 sequence (P38532 whole entry): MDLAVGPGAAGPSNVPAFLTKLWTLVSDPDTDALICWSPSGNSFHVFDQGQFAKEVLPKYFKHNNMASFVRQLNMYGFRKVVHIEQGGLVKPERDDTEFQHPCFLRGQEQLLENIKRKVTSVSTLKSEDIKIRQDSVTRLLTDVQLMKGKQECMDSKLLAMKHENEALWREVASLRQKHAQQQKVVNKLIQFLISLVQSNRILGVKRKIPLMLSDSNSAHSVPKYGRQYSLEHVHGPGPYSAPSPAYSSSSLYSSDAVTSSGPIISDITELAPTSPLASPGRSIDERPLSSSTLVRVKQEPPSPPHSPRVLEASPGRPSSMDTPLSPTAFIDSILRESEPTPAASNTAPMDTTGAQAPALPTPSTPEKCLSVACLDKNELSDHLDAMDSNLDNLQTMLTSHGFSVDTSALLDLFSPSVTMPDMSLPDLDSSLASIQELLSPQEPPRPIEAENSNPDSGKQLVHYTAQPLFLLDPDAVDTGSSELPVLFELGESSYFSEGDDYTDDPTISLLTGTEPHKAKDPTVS
The assay is described as follows: HSF1 potentiators in luciferase reporter cells, confirmation, cell-based, NIH3T3, luminescence, dose retest (AID 435004).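 Also: stress induced by proteasome inhibitor MG132 added 30 min after compound; luciferase reporter driven by HSF1 response element in NIH3T3 cells; actives raise luminescence as potentiators of the MG132 stress response.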 Format: functional.

Another assay concerns P388. Nature of the assay: cells. The class given is functional. Particulars: Mus musculus.
For another assay, the target named is T3, Streptokinase A (Streptococcus pyogenes serotype M1, UniProt P10520).
T3 sequence (P10520 whole entry): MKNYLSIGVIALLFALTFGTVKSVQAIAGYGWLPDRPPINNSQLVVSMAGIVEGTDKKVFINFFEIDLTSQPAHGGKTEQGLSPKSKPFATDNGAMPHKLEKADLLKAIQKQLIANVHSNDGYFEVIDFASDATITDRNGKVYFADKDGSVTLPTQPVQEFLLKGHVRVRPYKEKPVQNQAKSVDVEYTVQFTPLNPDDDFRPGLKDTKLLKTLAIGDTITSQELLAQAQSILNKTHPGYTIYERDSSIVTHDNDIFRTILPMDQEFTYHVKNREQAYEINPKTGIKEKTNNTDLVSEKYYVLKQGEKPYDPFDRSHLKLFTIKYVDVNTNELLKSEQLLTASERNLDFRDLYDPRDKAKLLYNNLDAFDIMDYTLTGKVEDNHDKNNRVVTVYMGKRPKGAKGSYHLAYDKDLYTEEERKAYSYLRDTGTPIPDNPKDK
Nature of the assay: S. pyogenes streptokinase expression inhibitors, potency, dose response, plasminogen activation absorbance, OD405 (AID 1914).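 Also: secreted streptokinase activity via plasminogen activation per viability signal from cell pellet.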 Format: functional, Streptococcus pyogenes M1 GAS.

Assay [14] relates to HEK293. Nature of the assay: cells. Conditions: Homo sapiens. This is another data set of the same source.
The nature of assay [15]: HepG2 cell cytotoxicity, dose response, cytotoxicity control for non-replicating M. tuberculosis project (AID 489018). The class given is functional. Conditions: Mycobacterium tuberculosis.
The target of assay [16] is Induced myeloid leukemia cell differentiation protein Mcl-1 (Homo sapiens, UniProt Q07820). Format: functional.
The target in assay [17] is T4, DNA repair protein RAD52 homolog (Homo sapiens, UniProt P43351).
T4 sequence (P43351 whole entry): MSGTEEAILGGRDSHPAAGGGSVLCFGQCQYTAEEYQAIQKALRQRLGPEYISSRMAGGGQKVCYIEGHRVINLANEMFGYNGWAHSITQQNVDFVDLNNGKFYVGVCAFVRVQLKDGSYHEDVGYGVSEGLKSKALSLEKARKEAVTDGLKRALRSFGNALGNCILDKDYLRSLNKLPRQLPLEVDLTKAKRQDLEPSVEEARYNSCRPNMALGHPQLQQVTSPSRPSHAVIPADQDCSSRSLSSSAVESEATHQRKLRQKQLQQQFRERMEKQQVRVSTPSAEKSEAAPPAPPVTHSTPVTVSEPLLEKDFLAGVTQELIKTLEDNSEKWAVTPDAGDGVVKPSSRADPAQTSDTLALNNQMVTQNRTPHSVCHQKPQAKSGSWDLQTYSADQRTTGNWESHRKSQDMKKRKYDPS
The class given is functional, biochemical.

In assay [18] the test system is BJ. The assay is described as follows: cytotoxicity toward BJ-TERT-LT-ST fibroblasts, dose response, cell-based, RAS-independent, luminescence (AID 1935).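 Also: BJ fibroblasts immortalized with TERT plus LT and ST oncogenes.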 Format: functional. Particulars: Homo sapiens.
Assay [19] has as its target Dual specificity tyrosine-phosphorylation-regulated kinase 1A (Rattus norvegicus, UniProt Q63470). Format: biochemical, Homo sapiens.
Assay [20] deals with SWI/SNF-related matrix-associated actin-dependent regulator of chromatin subfamily A member 2 (Homo sapiens, UniProt P51531). Nature of the assay: Luminescence-based cell-based high throughput dose response assay to identify activators of the function of SWI/SNF related, matrix associated, actin dependent regulator of chromatin, subfamily a, member 2 (SMARCA2, BRM). Format: functional.

Assay [21] in a line: THP-1 cell cytotoxicity, dose response, cytotoxicity control for non-replicating M. tuberculosis project (AID 489025). Format: functional.
The target in a further assay is Melanocortin receptor 4 (Homo sapiens, UniProt P32245). The class given is functional, cell-based.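 Also: Cell-based assay with luminescence read-out, confirmatory dose-response testing for agonist activity of biased ligands at MC4R; human U2OS cells with tagged receptor and beta-arrestin; potency of agonists that increase receptor coupling to beta-arrestin.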
The test system of assay [22] is Streptococcus sp. 'group A'. Nature of the assay: growth inhibition of control SK(-) GAS strain, dose response, counter-screen for streptokinase expression inhibitor project, luminescence, kanamycin, BacTiterGlo, confirmation (AID 1900). Format: functional, organism-based.
The nature of assay [23]: NIH-3T3 fibroblast cytotoxicity, dose response, cytotoxicity control, cell-based, fluorescence, Alamar Blue, secondary assay (AID 2327).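 Also: NIH-3T3 mouse fibroblasts cultured with fluconazole at 8 µg/mL.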 The class given is functional.
Assay [24] is described as follows: Counterscreen for activators of the function of SWI/SNF related, matrix associated, actin dependent regulator of chromatin, subfamily a, member 2 (SMARCA2, BRM): Luminescence-based cell-based high throughput dose response assay to identify non-selective compounds using the VP16 reporter assay. Format: functional.
Assay [25] can be described thus: C. albicans growth with fluconazole, confirmation, fluorescence, retest (AID 2467). Format: functional, cell-based.
In assay [26] the test system is BJ. Nature of the assay: cytotoxicity toward BJ-TERT fibroblasts, dose response, cell-based, RAS-independent, luminescence (AID 1933). Format: functional. Particulars: Homo sapiens.
Assay [27] concerns Cryptococcus neoformans. Nature of the assay: Cryptococcus growth inhibition by alamar blue – cell lysis, cherry-picks, replicate tests, mechanism study for C. neoformans antifungal project, dose response (AID 686999). The class given is functional, organism-based.
For assay [28], the system named is Cryptococcus neoformans. The assay is described as follows: PubChem AID 686997. The class given is functional, organism-based.
In a further assay the target is Galanin receptor type 3 (Homo sapiens, UniProt O60755). Nature of the assay: Fluorescence-based cell-based primary high throughput dose response assay to identify antagonists of the Galanin Receptor 3 (GalR3). The class given is functional.
Assay [29] can be described thus: cells. Format: functional, cell-based. Particulars: HEK-CNG.

Structures are written as SMILES. Activity calls are given as the source filed them.

For the compound `CCOc1ccc(-n2nc3c(S)nnc(C)c3c2C)cc1`, the results for the IC50 on Major prion protein and in “cells [1]” were 0.321 µM (active) and > 138 µM (inactive), respectively.

For `CCOC(=O)CC(SP1(=S)OCC2(CCCCO2)C(C2CCCCO2)O1)C(=O)OCC` (stereo not drawn), the IC50 in [2] was 56.3 µM (inactive); in assay [3], 32.8 µM (inactive).

On to `CC1CCN(Cc2cc(=O)oc3cc(O)c(Cl)cc23)CC1`, for which the AC50 in assay [4] was 6.33 µM (active).

On to `COc1ccc2[nH]c3c(C)c4ccncc4c(C)c3c2c1`, for which the CC50 in assay [5] was 0.93 µM (active); in assay [8], 31.2 µM (active); in assay [11] it was 0.838 µM (active); in [15] it was 8.79 µM (active); in assay [21], 2.94 µM (active). For the same compound, the half-maximal activity concentration (AC50) is 1.93 µM (active) in the assay with INS1, < 11.1 µM (active) in assay [17] and 2.86 µM (active) in assay [19]. For the same compound, the half-maximal effective concentration (EC50) was 2.51 µM (active) in assay [6]; 8.86 µM (active) in the assay on Streptococcus; 9.28 µM (inconclusive) in the assay on BJ [9]; > 59.7 µM (inactive) in the assay with HEK293 [12]; > 260 µM (inconclusive) in [13]; > 150 µM (not active) at Streptokinase A. Besides, the EC50 in the assay with HEK293 [14] was > 59.7 µM (inactive); in the assay on BJ [18], 4.95 µM (inconclusive); in assay [20], > 3.38 µM (active); on Melanocortin receptor 4, > 89.3 µM (inactive); in [22] it was 2.52 µM (active); in assay [23], 4.36 µM (inconclusive). Also, the results for the EC50 (in assay [24]; in assay [25]; in the assay with BJ [26]) were > 91.3 µM (inactive), 0.698 µM (active) and 3.65 µM (inconclusive), respectively. The values for the 50% growth inhibitory concentration (GI50) in the assay with SN12K1, in the assay with P388/ADR and in the assay with P388 were 0.245 µM (active), 0.439 µM (active) and 0.239 µM (active), respectively. Also, the IC50 in “cells [7]” is 0.37 µM (active); in assay [10] it was 28.8 µM (active); in assay [16], > 54 µM (active).

As for `COC(=O)C1=C(C)N(Cc2ccccc2)C(=S)NC1c1ccc(Br)cc1` (stereo not drawn), the AC50 in the assay with Cryptococcus neoformans [27] is 35 µM (active); in the assay on Cryptococcus neoformans [28] it was 25 µM (active).

For the compound `CC1(CSc2ccccc2)CC(=O)N1` (stereo not drawn), at Galanin receptor type 3, the IC50 was > 29.9 µM (inactive). The EC50 in “cells [29]” was > 29.9 µM (inactive).
